Source: patent publication US8252788B2, “Therapeutic compounds” (Allergan, Inc., priority 2008, dated 2012)

Tests used:
[1] = tested on: laser-induced hypertensive monkeys; assay: In vivo intraocular pressure (IOP) test in laser-induced hypertensive monkeys
normotensive dogs = assay: In vivo intraocular pressure (IOP) test in normotensive dogs
Experimental: Title compounds H145 and H146 from above are tested in vivo to test its ability to reduce intraocular pressure. Compound H145 is tested in normotensive dogs.

[2] = tested on: lashes and adjacent hairs; assay: Observation of lashes and adjacent hairs in glaucoma patients treated with bimatoprost in one eye; assay type: in vivo
Excerpt: In the course of treating patients having glaucoma, treatment may only be appropriate in one eye. […] The lash appearance on the lids of the treated eyes would have appeared quite attractive if it represented a bilateral phenomenon. As a result of its asymmetric nature, the long lashes on one side could be construed as disturbing from a cosmetic standpoint. A systemic examination was preformed as a result of the asymmetric phenomenon. It soon became apparent that this altered appearance was not an isolated finding. […] Definite differences could be identified to varying degrees in the lashes and adjacent hairs of all patients who were taking the drug on a unilateral basis for longer than 6 months.
The changes in the lashes were apparent on gross inspection in several patients once attention was focused on the issue. In those with light colored hair and lashes, the differences were only seen easily with the aid of the high magnification and lighting capabilities of the slit lamp biomicroscope. In the course of glaucoma follow-up examination, attention is generally immediately focused on the eye itself. As a result of the high power magnification needed only one eye is seen at a time and the eye is seen at a high enough power that the lashes are not in focus. […]

Structure (SMILES)	IOP versus baseline [1]	intraocular pressure (IOP) versus baseline (normotensive dogs)	lash appearance in treated eye versus non-treated eye ([2]; glaucoma patient treated in one eye)	hair growth in treated versus control areas ([2]; multiple parameters of hair appearance, many subjects)
O=C(OCCO)c1ccc(CCC[C@@H]2[C@@H](CSc3cc(Cl)cc(Cl)c3)[C@H](O)C[C@H]2Cl)s1 [Compound H145]	decreases from baseline	decreases from baseline		
O=C(OCCN1CCOCC1)c1ccc(CCC[C@@H]2[C@@H](CSc3cc(Cl)cc(Cl)c3)[C@H](O)C[C@H]2Cl)s1 [Compound H146]	decreases from baseline	decreases from baseline		
O=C(OCCO)c1ccc(CCC[C@@H]2[C@@H](CNc3cc(Cl)cc(Cl)c3)[C@H](O)C[C@H]2Cl)s1 [Compound H147]	decreases from baseline	decreases from baseline		
O=C(OCCN1CCOCC1)c1ccc(CCC[C@@H]2[C@@H](CNc3cc(Cl)cc(Cl)c3)[C@H](O)C[C@H]2Cl)s1 [Compound H148]	decreases from baseline	decreases from baseline		
CCNC(=O)CCC/C=C\C[C@@H]1[C@@H](/C=C/[C@@H](O)CCc2ccccc2)[C@H](O)C[C@@H]1O [bimatoprost]			longer, thicker, and fuller	stimulated
